In one series the test system is p75, MPZ, NRG1, and Erβ. Put plainly: Neuroprotection biomarker panel by ELISA in 3D EngNT (all markers together). Format: cell-based, rat. The following applies: for all markers (p75, MPZ, NRG1, ERβ); GGF 200 ng/mL pretreatment. The procedure: (§1) The MPZ content in 3D EngNT cell lysates was determined using the Rat ELISA kit (MyBiosource, San Diego, CA, USA). A standard curve with a range of 0.06 to 18 ng/mL was used to express the concentration as a percentage of ng/mL.
3D EngNT cell lysates were subjected to the Rat NGFR ELISA kit (MyBiosource, San Diego, CA, USA) in accordance with the product specifications. Quantification was obtained through a standard curve ranging from 0.312 to 20 ng/mL.
ERβ concentrations in 3D EngNT lysates were measured using the Rat ERβ ELISA Kit (Cloud-Clone, Houston, TX, USA). The result was given as % ng/mL against a 0.312–20 ng/mL standard curve.

In series [1] the test system is NaV 1.7, NaV 1.8, and GABA. Put plainly: Nociception-related biomarker panel by ELISA in 3D EngNT (all markers together). Format: cell-based, rat. The following applies: GGF 200 ng/mL pretreatment, 24 h. Here is the method: Quantification was obtained through a standard curve ranging from 6 to 400 pg/mL. NaV 1.7 was quantified on 3[…] lysates using the SCN9A/Nav1.7 ELISA Kit (LifeSpan BioSciences, Lynnwood, WA, USA). OD was correlated with the standards' concentration (0.312 to 20 ng/mL) using a standard curve. On 3[…] lysates, the Mouse Sodium Channel Protein Type 10 Subunit Alpha (SCN10A) ELISA Kit (MyBiosource, San Diego, CA, USA) quantified NaV 1.8 [64]. Comparing colour intensity (OD) to standard concentration produced a standard curve.
In general terms: ELISA stands for enzyme-linked immunosorbent assay.

Series [2] deals with 3D EngNT (RSC96/PC12 co-culture). Put plainly: ROS production (cytochrome C reduction) in 3D EngNT. The following applies: GGF 200 ng/mL pretreatment, 24 h with intestinal metabolites. The series is classed as cell-based, rat. The procedure:
In the EngNT in vitro model, superoxide anion release was assessed by measuring cytochrome C reduction. Superoxide dismutase and cytochrome C (from Merck Life Science, Rome, Italy) were incubated for 30 min with both treated and untreated cells. Absorbance at 550 nm was recorded using a spectrometer (Infinite 200 Pro MPlex, Tecan, Männedorf, Switzerland). The results, averaged over five tests performed in triplicate, are expressed as the mean ± standard deviation (%) of lower cytochrome C nanomoles per microgram of protein relative to the control (0 line).

The next series has as its system MPZ. Put plainly: MPZ ELISA in 3D EngNT lysates. Format: cell-based, rat. The settings on record: GGF 200 ng/mL pretreatment, 24 h. The procedure:
as §1

The next series deals with ERβ. Put plainly: ERβ ELISA in 3D EngNT lysates. The following applies: GGF 200 ng/mL pretreatment, 24 h. Format: cell-based, rat. Here is the method: ERβ concentrations in 3[…] lysates were measured using the Rat ERβ ELISA Kit (Cloud-Clone, Houston, TX, USA).
A further series has as its system TNFα. Put plainly: TNFα ELISA in 3D EngNT supernatants. The settings on record: GGF 200 ng/mL pretreatment, 24 h. The series is classed as cell-based, rat. From the text:
TNF-α levels in 3D EngNT supernatants were quantified using the TNF-α ELISA Kit (Merck Life Science, Rome, Italy). The results were obtained using a calibration curve (range: 24.58–6000 pg/mL).

Series [3] relates to 3D EngNT (RSC96/PC12 co-culture). The series is described as follows: MTT cell viability in 3D EngNT under demyelination (GGF 200 ng/mL). Format: cell-based, rat. The following applies: GGF 200 ng/mL pretreatment, 24 h with intestinal metabolites. Here is the method:
RSC96, a rat-derived Schwann cell line (purchased from ATCC), was cultured in Adv DMEM (Thermo Fisher Scientific, Rodano, MI, Italy) containing 1% penicillin-streptomycin, 2 mM L-glutamine, and 5% FBS [46]. The culture was maintained at 37 °C with 5% CO2 and 95% humidity in a 37 °C incubator. Experiments utilised RSC96 cells from passages 10 to 15, which were sub-cultured two or three times weekly.
The ATCC rat neural PC12 cell line was cultured in Advanced RPMI-1640 medium (Thermo Fisher Scientific, Rodano, MI, Italy). This medium contained 5% FBS, 5% horse serum (HS; Merck Life Science, Rome, Italy), and 2 mM glutamine. Cultures were maintained at 37 °C in a 5% CO2 environment with 95% humidity, ensuring they remained below confluency. Assays utilised cells between passages 3 and 13 [47]. PC12 cells are commonly used for in vitro neuroprotective chemical screening, being a suitable neuronal cell line. […]
A standard method described in the literature was employed to assess cell survival after each stimulation using the MTT-based In Vitro Toxicology Assay Kit (Merck Life Science, Rome, Italy). All solubilised materials, whether treated or untreated, were measured at 570 nm with a 690 nm correction using a spectrometer (Infinite 200 Pro MPlex, Tecan, Männedorf, Switzerland). […]

A further series has as its system p75. The series is described as follows: p75 (NGFR) ELISA in 3D EngNT lysates. The following applies: GGF 200 ng/mL pretreatment, 24 h. Format: cell-based, rat. Here is the method:
3[…] lysates were subjected to the Rat NGFR ELISA kit (MyBiosource, San Diego, CA, USA) in accordance with the product specifications. Quantification was obtained through a standard curve ranging from 0.312 to 20 ng/mL.

The next series has as its system NRG1. The settings on record: 3D EngNT, GGF 200 ng/mL pretreatment, 24 h.

For the molecule glial growth factor 2 [GGF], in the series with p75, MPZ, NRG1, and Erβ, the “reduction of marker levels compared to the control condition” value is recorded as “about 10%”.
As to `CC(=O)N[C@@H](CS)C(=O)O` [NAC, N-Acetylcysteine], the “nociception-related markers NaV 1.7, NaV 1.8, GABA (result in words)” value in series [1] is “neuroprotective and hypothetically anti-nociceptive effects”. Besides, the “ROS production, antioxidant response (result in words)” value in series [2] was “greatest effect compared to ALA and vitamin B6”. The “permeability compared to the control” value in the series with Caco-2 cells (at 4 h, fluorescent tracer, normalised to control) amounted to 51%. Besides, in the series on Caco-2 cells (individual agents, 1–6 h), the “permeability (result in words)” value is on record as “highest permeability of all agents”. In addition, the “MPZ levels (result in words)” value in the series with MPZ was “stronger, more noticeable impact than ALA and vitamin B6”. Further, the “Erβ levels (result in words)” value in the series with ERβ is “comparable to ALA and better than vitamin B6”. Also, the “TNFα production (result in words)” value in the series with TNFα was “effect slightly inferior to ALA”.
As for `O=c1ccn([C@@H]2O[C@H](COP(=O)(O)O)[C@@H](O)[C@H]2O)c(=O)[nH]1` [UMP, Uridine monophosphate], in series [1], the “nociception-related markers NaV 1.7, NaV 1.8, GABA (result in words)” value was “neuroprotective and hypothetically anti-nociceptive effects”. Besides, the “cell viability (result in words)” value in series [3] was “effects even more similar”. Besides, the “p75 signal (result in words)” value in the series with p75 is reported as “comparable to ALA”. In addition, in the series on TNFα, the “TNFα production (result in words)” value is recorded as “most pronounced reduction, superior to ALA”.
Turning to `N[C@@H](CCC(=O)N[C@@H](CS)C(=O)NCC(=O)O)C(=O)O` [GSH, Glutathione], in series [1], the “nociception-related markers NaV 1.7, NaV 1.8, GABA (result in words)” value was “neuroprotective and hypothetically anti-nociceptive effects”. Besides, the “ROS production, antioxidant response (result in words)” value in [2] is given as “more pronounced reduction”. Besides, in the series on NRG1, the “NRG1 levels (result in words)” value was “more biological effects than ALA and vitamin B6 alone”. The “MPZ levels (result in words)” value in the series on MPZ was “stronger, more noticeable impact than ALA and vitamin B6”. Also, the “cell viability (result in words)” value in [3] is “almost as strong as ALA and vitamin B6”. Also, the “Erβ levels (result in words)” value in the series with ERβ was “comparable to ALA and better than vitamin B6”. Moreover, in the series with p75, the “p75 signal (result in words)” value was “comparable to ALA”.

These data come from publication PMC12730352 (Brain Sciences, 2025).
